{
  "source": "patent US11684614B2",
  "about": "“Formulations of hydroxypyridonate actinide/lanthanide decorporation agents” (priority 2017, dated 2023)",
  "key": {"[1]": {"assay": "Related substance assay / chromatographic API purity of prototype formulations", "assay_type": "physicochemical", "from_the_text": "Analytical Method I for Related Substance Assay (TABLE 2.5):\nThis method was previously established and validated (see 3,4,3-L1(1,2-HOPO)—Excipient Compatibility Study; EXAMPLE 1). Suitability was therefore not re-evaluated as part of this study.\nAnalytical Method I for Related Substance Assay (TABLE 2.6):\nThe related substances, estimated as area (%) from the chromatograms, and the chromatographic purity of 3,4,3-L1(1,2-HOPO) in selected prototype formulations are listed in TABLE 2.28."}, "[2]": {"assay_type": "in vivo, Swiss-Webster mice", "conditions": "for urinary excretion, of administered dose: rodents (mice)", "from_the_text": "(§1) Formulated material was used in the single dose in vivo ADME characterization studies in Sprague Dawley rats and Swiss-Webster mice with 14C-labeled 3,4,3-L1(1,2-HOPO).\n(§2) Pharmacokinetic parameters and disposition/biodistribution of 3,4,3-L1(1,2-HOPO) were characterized in vivo (with the aid of two 14C labels on the spermine backbone of the parent product) in two non-GLP studies using Swiss-Webster mice and Sprague Dawley rats. The study designs for these two studies are shown in TABLE 5.1 and TABLE 5.2, respectively. Groups of six mice (3 male, 3 female) were given a single dose of [14C]-3,4,3-L1(1,2-HOPO) via iv, ip, or po routes, respectively. An additional group of six mice (3 male, 3 female) were administered the 14C-labeled API with permeability enhancer (10% sodium oleate) by oral gavage (po). Similarly, groups of six rats (3 male, 3 female) were administered a single iv dose of the 14C-labeled API or a single po dose of the 14C-labeled API with 10% sodium oleate. In each of these studies, samples were collected at scheduled time points up to 24 hr post-dose and analyzed for 14C content using liquid scintillation counting. Blood, liver, kidney, feces and urine were collected and analyzed from the mice. Blood, brain, liver, kidney, lungs, spleen, skeletal muscle tissues, gastrointestinal (GI) tract samples, carcasses, feces, and urine were collected and analyzed from the rats."}, "[3]": {"assay": "Radiolabeled in vivo ADME study in rats (with metabolite profiling)", "set-up": "species or system Sprague Dawley rats", "conditions": "for urinary excretion, of administered dose: rodents (rats)", "from_the_text": "as §1, §2\nThe principal excretion routes of radioactivity from [14C]-3,4,3-L1(1,2-HOPO) were both the feces and urine after an iv dose based on high levels of radioactivity in both feces and urine as well as significant radioactivity in the excretory tissues, kidney, liver and GI tract. Fecal elimination by 24 hr post-dose accounted for approximately 62% and 16% of the iv administered dose in mice and rats, respectively. Urinary excretion accounted for approximately 12-23% of the iv administered dose in these rodents with renal excretion of 14C beginning as early as 5 min after iv injection in mice. In contrast, following oral administration, excretion was primarily by the fecal route accounting for approximately 89% and 41% of the orally administered dose in mice and rats, respectively, by 24 h post-dose. Urinary excretion accounted for <1% of the orally administered dose and low radioactivity levels were detected in systemic circulation and in tissues except for the GI tract. […] Based on the colonic transit time in rats of 15.5 hr, 11 the radioactivity found in the feces in the first 24 hr after po administration is most likely unabsorbed compound. […] Metabolite profiling of [14C]-3,4,3-L1(1,2-HOPO) was performed using an HPLC method on selected urine, feces, kidney, liver, and lung samples from the Sprague Dawley rat. Only samples containing the highest total radioactive levels were selected for analysis. A total of 11 peaks were detected, of which 6 were from uncharacterized interactions between the test article and matrix components because they were also seen in spiked blank matrix controls. These 6 peaks are not metabolites and are considered alternate forms of the parent compound (e.g. complexes of the test article with metallic ions). The 5 other radioactive species (peaks P1-P4 and P10) are considered potential metabolites. Feces-specific metabolite peaks P2, P3, and P10 represented a combined 10.5-11.4% and 0.5-4.2% of the administered dose after po or iv administration, respectively, in rats. Peak P10 was the most abundant peak in all samples analyzed. It represented up to 10% of the administered dose in feces after po administration while the other two feces-specific peaks represented <1% of the administered dose after po administration. Peak P10 was also the predominant, and sometimes the only, peak in feces samples after iv administration. […]"}},
  "note": "Like-named read-outs stand apart in the source and are kept apart here.",
  "data": [
    {"molecule": "O=C(NCCCN(CCCCN(CCCNC(=O)c1cccc(=O)n1O)C(=O)c1cccc(=O)n1O)C(=O)c1cccc(=O)n1O)c1cccc(=O)n1O", "note": "[Drug Substance Control]", "values": [
      {"measurement": "Chromatographic Purity of 3,4,3-LI(1,2-HOPO)", "setting": "[1]; 3,4,3-LI(1,2-HOPO) peak", "result": "97.45 area (%)"},
      {"measurement": "Related Substances, Unknown peak", "setting": "[1]; RRT 0.59", "result": "0.01 area (%)"},
      {"measurement": "Related Substances, Unknown peak", "setting": "[1]; RRT 0.61", "result": "0.01 area (%)"},
      {"measurement": "Related Substances, Unknown peak", "setting": "[1]; RRT 0.62", "result": "0.01 area (%)"},
      {"measurement": "Related Substances, Unknown peak", "setting": "[1]; RRT 0.87", "result": "0.11 area (%)"},
      {"measurement": "Related Substances, Unknown peak", "setting": "[1]; RRT 0.89", "result": "0.13 area (%)"},
      {"measurement": "Related Substances, Unknown peak", "setting": "[1]; RRT 1.02", "result": "0.08 area (%)"},
      {"measurement": "Related Substances, Unknown peak", "setting": "[1]; RRT 1.11", "result": "0.04 area (%)"},
      {"measurement": "Related Substances, Unknown peak", "setting": "[1]; RRT 1.27", "result": "0.17 area (%)"},
      {"measurement": "Related Substances, Unknown peak", "setting": "[1]; RRT 1.30", "result": "0.10 area (%)"},
      {"measurement": "Related Substances, Unknown peak", "setting": "[1]; RRT 1.39", "result": "0.20 area (%)"},
      {"measurement": "Related Substances, Unknown peak", "setting": "[1]; RRT 1.40", "result": "0.04 area (%)"},
      {"measurement": "Related Substances, Unknown peak", "setting": "[1]; RRT 1.46", "result": "0.60 area (%)"},
      {"measurement": "Related Substances, Unknown peak", "setting": "[1]; RRT 1.74", "result": "0.15 area (%)"},
      {"measurement": "Related Substances, Unknown peak", "setting": "[1]; RRT 1.89", "result": "0.18 area (%)"},
      {"measurement": "Related Substances, Unknown peak", "setting": "[1]; RRT 2.17", "result": "0.33 area (%)"},
      {"measurement": "Related Substances, Unknown peak", "setting": "[1]; RRT 2.30", "result": "0.05 area (%)"},
      {"measurement": "Related Substances, Unknown peak", "setting": "[1]; RRT 2.58", "result": "0.25 area (%)"},
      {"measurement": "Related Substances, Unknown peak", "setting": "[1]; RRT 2.79", "result": "0.11 area (%)"}
    ]},
    {"molecule": "[14C]-3,4,3-L1(1,2-HOPO)", "values": [
      {"measurement": "time of highest level of radioactivity in kidneys and liver", "setting": "[2]; ip, mice", "result": 1, "unit": "h"},
      {"measurement": "fecal elimination, of administered dose", "setting": "[2]; iv, by 24 hr post-dose, mice", "result": "approximately 62%"},
      {"measurement": "AUC (plasma radioactivity)", "setting": "[2]; iv, female mice", "result": 66.2, "unit": "hr Pg-eq/ml"},
      {"measurement": "C0 (plasma radioactivity)", "setting": "[2]; iv, female mice", "result": 342, "unit": "Pg-eq/mL"},
      {"measurement": "AUC (plasma radioactivity)", "setting": "[2]; iv, male mice", "result": 41.7, "unit": "hr Pg-eq/ml"},
      {"measurement": "C0 (plasma radioactivity)", "setting": "[2]; iv, male mice", "result": 76, "unit": "Pg-eq/mL"},
      {"measurement": "time of highest level of radioactivity in kidneys and liver", "setting": "[2]; iv, mice", "result": 1, "unit": "h"},
      {"measurement": "urinary excretion, of administered dose", "setting": "[2]; iv", "result": "12-23%"},
      {"measurement": "oral bioavailability improvement with sodium oleate", "setting": "[2]; mice", "result": "2- to 3 fold"},
      {"measurement": "fecal excretion, of administered dose", "setting": "[2]; oral, by 24 h post-dose, mice", "result": "approximately 89%"},
      {"measurement": "bioavailability of total radioactivity", "setting": "[2]; oral, mice", "result": "< 3", "unit": "%"},
      {"measurement": "urinary excretion, of administered dose", "setting": "[2]; oral", "result": "< 1", "unit": "%"},
      {"measurement": "general rank order of tissue concentrations", "setting": "[3]; iv, 2 hr time point, rats", "result": "kidney>liver>lung>brain spleen muscle"},
      {"measurement": "fecal elimination, of administered dose", "setting": "[3]; iv, by 24 hr post-dose, rats", "result": "~16", "unit": "%"},
      {"measurement": "AUC (plasma radioactivity)", "setting": "[3]; iv, female rats", "result": 211, "unit": "hr Pg-eq/ml"},
      {"measurement": "C0 (plasma radioactivity)", "setting": "[3]; iv, female rats", "result": 422, "unit": "Pg-eq/ml"},
      {"measurement": "AUC (plasma radioactivity)", "setting": "[3]; iv, male rats", "result": 354, "unit": "hr Pg-eq/ml"},
      {"measurement": "C0 (plasma radioactivity)", "setting": "[3]; iv, male rats", "result": 463, "unit": "Pg-eq/ml"},
      {"measurement": "feces-specific metabolite peaks P2, P3, and P10 combined, of the administered dose", "setting": "[3]; iv, rats", "result": "0.5-4.2%"},
      {"measurement": "metabolite peak P1 in urine, of the administered dose", "setting": "[3]; iv, rats", "result": "≤ 0.4", "unit": "%"},
      {"measurement": "time of highest level of radioactivity in kidneys and liver", "setting": "[3]; iv, rats", "result": 2, "unit": "h"},
      {"measurement": "urinary excretion, of administered dose", "setting": "[3]; iv", "result": "12-23%"},
      {"measurement": "fecal excretion, of administered dose", "setting": "[3]; oral, by 24 h post-dose, rats", "result": "~41", "unit": "%"},
      {"measurement": "bioavailability of total radioactivity", "setting": "[3]; oral, rats", "result": "< 3", "unit": "%"},
      {"measurement": "putative major metabolite (P10), of an administered oral dose", "setting": "[3]; oral, rats", "result": "~10", "unit": "%"},
      {"measurement": "urinary excretion, of administered dose", "setting": "[3]; oral", "result": "< 1", "unit": "%"},
      {"measurement": "feces-specific metabolite peaks P2, P3, and P10 combined, of the administered dose", "setting": "[3]; po, rats", "result": "10.5-11.4%"},
      {"measurement": "other two feces-specific peaks, of the administered dose", "setting": "[3]; po, rats", "result": "< 1", "unit": "%"},
      {"measurement": "peak P10 in feces, of the administered dose", "setting": "[3]; po, rats", "result": "up to 10%"}
    ]}
  ]
}
